Holding throughout (assay type): cell-based
Test [1] deals with T1, human TGR5 receptor (Homo sapiens, UniProt Q8TDU6).
T1 construct: host or cells: CHO-K1 (hTGR5-CHO cells)
T1 sequence (Q8TDU6 1-330): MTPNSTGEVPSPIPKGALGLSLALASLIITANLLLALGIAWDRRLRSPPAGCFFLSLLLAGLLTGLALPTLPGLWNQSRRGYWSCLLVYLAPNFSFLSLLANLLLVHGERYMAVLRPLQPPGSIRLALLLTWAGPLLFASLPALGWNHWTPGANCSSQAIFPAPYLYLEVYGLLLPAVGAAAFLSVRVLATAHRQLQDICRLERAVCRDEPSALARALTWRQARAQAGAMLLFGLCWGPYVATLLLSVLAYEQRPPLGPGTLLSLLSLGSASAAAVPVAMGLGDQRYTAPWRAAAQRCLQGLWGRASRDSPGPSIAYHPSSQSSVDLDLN
Briefly: Human TGR5 cAMP production assay. Conditions: human TGR5, luminescent cAMP assay; coded A-D; read-out: Human TGR5 Lum. cAMP Activity (EC50). The gist of the method:
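CHO-K1 cells stably expressing human TGR5, with IBMX and cAMP antibody, were exposed to half-log serially diluted compound for 1 h at room temperature. cAMP measured by enzyme-fragment complementation luminescence (XS+ kit) after overnight incubation; EC50 values reported.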
Background: cAMP levels reflect the balance of adenylyl cyclase and phosphodiesterase activity.

The target of test [2] is T2, mouse TGR5 receptor (Mus musculus, UniProt Q80SS6).
T2 construct: expressed in transfected cells; host or cells: HEK293-EBNA (293 c18, ATCC CRL10852), Hygromycin B selection
T2 sequence (Q80SS6 1-329): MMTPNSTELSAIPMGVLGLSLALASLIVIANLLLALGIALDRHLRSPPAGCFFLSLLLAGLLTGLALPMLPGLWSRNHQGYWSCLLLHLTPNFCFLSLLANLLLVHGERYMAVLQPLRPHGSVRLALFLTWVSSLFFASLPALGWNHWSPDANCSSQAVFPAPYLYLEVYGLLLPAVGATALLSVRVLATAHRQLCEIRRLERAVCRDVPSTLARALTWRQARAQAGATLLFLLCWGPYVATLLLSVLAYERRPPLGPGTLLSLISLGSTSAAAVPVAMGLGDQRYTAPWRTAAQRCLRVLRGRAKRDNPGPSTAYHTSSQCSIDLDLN
Nature of the test: Mouse TGR5 cAMP production assay (luminescent, DiscoveRx cAMP XS+). Conditions: HEK293-EBNA cells overexpressing mouse TGR5, luminescent cAMP XS+; coded A-D; read-out: Mouse TGR5 Lum. cAMP Activity (EC50). An excerpt:
Mouse TGR5 cAMP Production Assay
We evaluated compounds of the present invention for their ability to induce cAMP production in HEK-EBNA cells overexpressing the mouse TGR5 receptor. Human embryonic kidney cells (HEK293-EBNA) stably expressing mouse TGR5 receptor were established using the following procedure. Specifically, a commercially-obtained gene encoding mouse TGR5 (accession number BC116914) from Thermo Scientific (Waltham, Mass.) was cloned into an episomal expression vector. The resulting expression plasmid was then transfected into 293 c18 (ATCC® CRL10852™) cells, which express the Epstein-Barr virus nuclear antigen EBNA1 and can support the replication of episomal vectors. Selection for the plasmid was maintained with Hygromycin B. Cells were cultured and maintained in DMEM (Sigma; cat #6429) supplemented with 10% Fetal Bovine Serum, 1% penicillin/streptomycin, 2 mM L-alanine L-glutamine (GlutaMax), and 250 μg/mL Hygromycin.
Two cAMP production assays were developed.
1. Luminescent cAMP Production Assay
In this first cAMP production assay, the cAMP production was measured using DiscoveRx's cAMP XS+ kit following the manufacturer's recommended protocol.
Briefly, HEK293-EBNA cells stably overexpressing mouse TGR5 were harvested using non-enzymatic cell dissociation buffer (Sigma-Aldrich, St. Louis, Mo.), spun down, then resuspended in serum-free DMEM with 500 μM IBMX at a density of 1.25×10^6 cells/mL. 500 μL of cAMP antibody solution was added to […] of cell suspension and incubated at room temperature for 20 min.
Test compounds were serially diluted (half-log dilutions) in DMSO and then further diluted 1:50 in PBS, 10 mM HEPES buffer. 2 μL of serially diluted compound was added to a 384-well low volume plate (Greiner cat #784075) and centrifuged briefly. 2 μL of the cell/cAMP antibody mixture was then added to each compound-containing well and allowed to incubate at room temperature for one (1) hour. Following incubation, the XS+ kits' ED/Lysis/CL Substrate Working Solution was prepared following the manufacturer's recommended protocol and 4 μL was added to each well of the plate. The plate was then incubated for one (1) hour at room temperature. Following incubation, 4 μL of (Enzyme Acceptor) EA reagent was added to the plate and allowed to incubate overnight at room temperature. Luminescent signal was then detected using the Viewlux instrument (Perkin-Elmer, Waltham, Mass.).
In Table 33, EC50 values for both human and mouse cells were determined according to the TGR5 cAMP assays described above.

Test [3] addresses T2, mouse TGR5 receptor. Briefly: Mouse TGR5 cAMP production assay (HTRF, Cisbio cAMP HiRange). Conditions: HEK293-EBNA cells overexpressing mouse TGR5, HTRF cAMP HiRange; coded A-D. The essentials: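 cAMP read by HTRF competition after 1 h room-temperature compound exposure of mouse TGR5-overexpressing HEK293-EBNA cells. Cells were suspended in serum-free DMEM containing 500 μM IBMX; compounds ran as 12-point half-log dilutions in duplicate; EC50 derived.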

This passage reports EC50 results from patent US11236055B2 (Venenum Biodesign, LLC, priority 2016, dated 2022).

Take `Cc1cncc(C)c1-c1cccc(C(C)(C)NS(=O)(=O)c2cccc(C(F)(F)F)c2)c1` [Compound 5AD, N-(2-(3-(3,5-dimethylpyridin-4-yl)phenyl)propan-2-yl)-3-(trifluoromethyl)benzenesulfonamide]: the EC50 in test [1] and in test [2] was 1000 to 30000 nM each time.
As for `CC(C)(NS(=O)(=O)c1cccc(C(F)(F)F)c1)c1cccc(-c2ccncc2O)c1` [Compound 1AN], the results for the EC50 in test [1] and in test [2] were 100 to 999 nM and 1000 to 30000 nM, respectively.
The matching figures for `O=S(=O)(NCc1cccc(-c2ccncc2F)c1)c1cccc(C(F)(F)F)c1` [Compound 1AP]: 100 to 999 nM and 1000 to 30000 nM.
On the same counts, the results for `C[C@@H](NS(=O)(=O)c1cccc(C(F)(F)F)c1)c1cccc(-c2ccncc2Cl)c1` [Compound 1BC] are 100 to 999 nM and 100 to 999 nM.
For `O=S(=O)(NCc1ccc(F)c(-c2ccncc2)c1)c1cccc(C(F)(F)F)c1` [Compound 1AS], the EC50 was 100 to 999 nM in test [1] and 1000 to 30000 nM in test [2].
Turning to `CCC(NS(=O)(=O)c1cccc(C(F)(F)F)c1)c1cccc(-c2ccncc2C)c1` (racemic) [Compound 5AU, (+/−)N-(1-(3-(3-methylpyridin-4-yl)phenyl)propyl)-3-(trifluoromethyl)benzenesulfonamide], the EC50 in test [1] and in test [2] was 100 to 999 nM in each case.
Consider `Cc1cnccc1-c1cccc(C(C)(C)N(CCCC(=O)NCCN)S(=O)(=O)c2cccc(Cl)c2C)c1` [Compound 21, N-(2-Aminoethyl)-4-(3-chloro-2-methyl-N-(2-(3-(3-methylpyridin-4-yl)phenyl)propan-2-yl)-phenylsulfonamido)butanamide], for which the EC50 is less than 100 nM in test [1] and 100 to 999 nM in test [3].
The matching figures for `Cc1cnccc1-c1cccc([C@H](C)N(CCCC(=O)O)S(=O)(=O)c2ccccc2C)c1` [Compound 16AD, (S)-4-(2-methyl-N-(1-(3-(3-methylpyridin-4-yl)phenyl)-ethyl)phenylsulfonamido)butanoic acid]: 100 to 999 nM and 100 to 999 nM.
On the same counts, the results for `Cc1cnccc1-c1cccc([C@H](C)N(CCCC(=O)N[C@@H](CO)C(=O)O)S(=O)(=O)c2cccc(Cl)c2C)c1` [Compound 21AI, (S)-2-(4-(3-chloro-2-methyl-N-((S)-1-(3-(3-methylpyridin-4-yl)phenyl)ethyl)phenylsulfonamido)butanamido)-3-hydroxypropanoic acid] are less than 100 nM and 100 to 999 nM.
The matching figures for `Cc1cnccc1-c1cccc(C(C)(C)N(CCCC(=O)NCCNc2ncc(C(=O)O)cn2)S(=O)(=O)c2cccc(Cl)c2C)c1` [Compound 27AA, 2-((2-(4-(3-chloro-2-methyl-N-(2-(3-(3-methylpyridin-4-yl)Phenyl)propan-2-yl)phenylsulfonamido)butanamido)ethyl)amino)pyrimidine-5-carboxylic acid]: less than 100 nM and less than 100 nM.
`Cc1cnccc1-c1cccc([C@H](C)N(CCCC(=O)NCCS(=O)(=O)NCC(=O)O)S(=O)(=O)c2ccc(F)cc2C(F)(F)F)c1` [Compound 36, (S)-2-(4-(4-fluoro-N-(1-(3-(3-methylpyridin-4-yl)phenyl)ethyl)-2-(trifluoromethyl)phenylsulfonamido)butanamido)ethanesulfonamido acetic acid]: the EC50 in test [1] and in test [3] was less than 100 nM throughout.
For the compound `Cc1cnccc1-c1cccc([C@H](C)N(CCOCC(=O)O)S(=O)(=O)c2cccc(Cl)c2C)c1` [Compound 16AM, (S)-2-(2-(3-chloro-2-methyl-N-(1-(3-(3-methylpyridin-4-yl)phenyl)ethyl)phenylsulfonamido)ethoxy)acetic acid], the EC50 in test [1] and in test [3] was 100 to 999 nM throughout.
Consider `COc1cnccc1-c1cccc(C2CN(C(=O)CCC(=O)O)CCN2S(=O)(=O)c2cccc(Cl)c2C)c1` (stereo not shown) [Compound 46AH, 4-(4-((3-chloro-2-methylphenyl)sulfonyl)-3-(3-(3-methoxypyridin-4-yl)phenyl)piperazin-1-yl)-4-oxobutanoic acid], for which the EC50 in test [1] was 100 to 999 nM; in test [3], less than 100 nM.
On the same counts, the results for `Cc1cnccc1-c1cccc(C2CN(C(=O)CCC(=O)O)CCN2S(=O)(=O)c2ccccc2C)c1` (stereo not shown) [Compound 46AI, 4-(3-(3-(3-methylpyridin-4-yl)phenyl)-4-(o-tolylsulfonyl)piperazin-1-yl)-4-oxobutanoic acid] are 100 to 999 nM and less than 100 nM.
The matching figures for `Cc1cnccc1-c1cccc([C@H](C)N(CCCCC(=O)O)S(=O)(=O)c2cccc(Cl)c2C)c1` [Compound 16AF, (S)-5-(3-chloro-2-methyl-N-(1-(3-(3-methylpyridin-4-yl)phenyl)ethyl)phenylsulfonamido)pentanoic acid]: less than 100 nM and 100 to 999 nM.
Take `Cc1cnccc1-c1cccc([C@H](C)NS(=O)(=O)c2ccccc2C(F)(F)F)c1` [Compound 5AR, (S)-N-(1-(3-(3-methylpyridin-4-yl)phenyl)ethyl)-2-(trifluoromethyl)benzenesulfonamide]: the EC50 is less than 100 nM in test [1] and 100 to 999 nM in test [3].
On the same counts, the results for `Cc1cnccc1-c1cccc([C@H](C)N(CCCCNCCC(=O)O)S(=O)(=O)c2cccc(Cl)c2C)c1` [Compound 33, (S)-3-((4-(3-chloro-2-methyl-N-(1-(3-(3-methylpyridin-4-yl)phenyl)ethyl)phenylsulfonamido)butyl)amino)propanoic acid] are 100 to 999 nM and 100 to 999 nM.
On the same counts, the results for `Cc1cnccc1-c1cccc([C@H](C)N(CCCC(=O)NCCC(=O)NCC(=O)O)S(=O)(=O)c2cccc(Cl)c2C)c1` [Compound 21AM, (S)-2-(3-(4-(3-chloro-2-methyl-N-(1-(3-(3-methylpyridin-4-yl)phenyl)ethyl)phenylsulfonamido)butanamido)propanamido)acetic acid] are less than 100 nM and 100 to 999 nM.
With `Cc1cnccc1-c1cccc(CN(CCCNC(=O)NCS(=O)(=O)O)S(=O)(=O)c2cccc(Cl)c2C)c1` [Compound 28AI, (3-(3-(3-chloro-2-methyl-N-(3-(3-methylpyridin-4-yl)benzyl)phenylsulfonamido)propyl)ureido)methanesulfonic acid], the EC50 in test [1] and in test [3] was 100 to 999 nM in each case.
Turning to `Cc1cnccc1-c1cccc(C2CN(C(=O)OC(C)(C)C)CCN2S(=O)(=O)c2ccccc2C(F)(F)F)c1` (racemic) [Compound 42, (+/−) tert-butyl 3-(3-(3-methylpyridin-4-yl)phenyl)-4-((2-(trifluoromethyl)phenyl)sulfonyl)-piperazine-1-carboxylate], the EC50 in test [1] and in test [3] was 1000 to 30000 nM throughout.

The EC50 is the midpoint of the concentration-response curve.
